From ChEMBL document CHEMBL4043247, “Design, synthesis and biological evaluation of 8-substituted-6-hydrazonoindolo[2,1-b]quinazolin-12(6H)-one scaffolds as potential cytotoxic agents: IDO-1 targeting molecular docking studies” (Bioorg Med Chem Lett, 2017) come the findings set out here.

The structures appear in SMILES notation.

In experiment [1] the test system is MCF7. Nature of the experiment: Cytotoxicity against human MCF7 cells after 6 days by MTT assay. In kind it is functional, cell-based. Conditions: MCF7, 144 h. On the technique in general: Formazan colour is commonly taken as a measure of viable cells.
The test system of experiment [2] is HeLa. The experiment is described as follows: Cytotoxicity against human HeLa cells after 6 days by MTT assay. Conditions: 144 h. In kind it is functional, cell-based.
Experiment [3] is described as follows: Antioxidant activity assessed as DPPH radical scavenging activity incubated for 30 mins under dark condition by UV-vis spectrophotometric method. The experiment is classed as functional. On the technique in general: Loss of DPPH colour is used to gauge radical scavenging.
Experiment [4] has as its system A549. Nature of the experiment: Cytotoxicity against human A549 cells after 6 days by MTT assay. The experiment is classed as functional, cell-based. Conditions: A549, 144 h.
The test system of experiment [5] is HEK293. Nature of the experiment: Cytotoxicity against HEK293 cells after 6 days by MTT assay. The experiment is classed as cell-based. The following applies: Homo sapiens, HEK293, 144 h.

With `CC(/C=C(\O)c1ccccc1)=N\N=C1\c2cc(F)ccc2-n2c1nc1ccccc1c2=O`, the IC50 (commonly the concentration at which inhibition is half-maximal) is 20.4 µM in experiment [1], 24.5 µM in experiment [2], 20.1 µM in experiment [3] and 32 µM in experiment [4].
In the case of `COc1cccc(/C=N/N=C2/c3cc([N+](=O)[O-])ccc3-n3c2nc2ccccc2c3=O)c1O`, the 50% inhibitory concentration (IC50) in experiment [1] was 34.2 µM; in experiment [2] it was 38 µM; in experiment [3] it was 28.7 µM; in experiment [4] it was 40.1 µM.
For the molecule `COc1cccc(/C=N/N=C2/c3cc(I)ccc3-n3c2nc2ccccc2c3=O)c1O`, the IC50 was 30.4 µM in experiment [1], 29.2 µM in experiment [2], 10.9 µM in experiment [3] and 32.3 µM in experiment [4].
On the same counts, the results for `N/N=C1/c2cc(-c3ccncc3)ccc2-n2c1nc1ccccc1c2=O` are 50.4 µM, 44.1 µM, 11.2 µM and 47.8 µM.
For `CC(/C=C(\O)c1ccccc1)=N\N=C1\c2cc(I)ccc2-n2c1nc1ccccc1c2=O`, the IC50 in experiment [1] came out at 19.9 µM; in experiment [5], 82.5 µM; in experiment [2], 18.8 µM; in experiment [3], 11.6 µM; in experiment [4], 20.4 µM.
For `CC(/C=C(\O)c1ccccc1)=N\N=C1\c2cc(-c3ccc(C(=O)O)cc3)ccc2-n2c1nc1ccccc1c2=O`, the IC50 in experiment [1] came out at 9.42 µM; in experiment [5], 64.1 µM; in experiment [2], 9.42 µM; in experiment [3], 5.02 µM; in experiment [4] it was 7.19 µM.
Consider `N/N=C1/c2cc(-c3ccc(C(=O)O)cc3)ccc2-n2c1nc1ccccc1c2=O`, for which the IC50 in experiment [1] turned out to be 61.1 µM; in experiment [2], 54.3 µM; in experiment [3], 22 µM; in experiment [4] it was 62.2 µM.
`CC(/C=C(\O)c1ccccc1)=N\N=C1\c2cc(-c3ccncc3)ccc2-n2c1nc1ccccc1c2=O`: the IC50 in experiment [1] is 11.6 µM; in experiment [5], 76.1 µM; in experiment [2], 12.2 µM; in experiment [3], 6.23 µM; in experiment [4], 6.01 µM.
With `COc1cccc(/C=N/N=C2/c3cc(Cl)ccc3-n3c2nc2ccccc2c3=O)c1O`, the IC50 in experiment [1] was determined as 35.4 µM; in experiment [2], 36.6 µM; in experiment [3] it was 22.2 µM; in experiment [4], 40.8 µM.
In the case of `COc1cccc(/C=N/N=C2/c3cc(-c4ccncc4)ccc3-n3c2nc2ccccc2c3=O)c1O`, the IC50 stood at 24.8 µM in experiment [1], 24.8 µM in experiment [2], 4.98 µM in experiment [3] and 32.9 µM in experiment [4].
In the case of `COc1cccc(/C=N/N=C2/c3cc(-c4ccc(C(=O)O)cc4)ccc3-n3c2nc2ccccc2c3=O)c1O`, the IC50 in experiment [1] is 37.1 µM; in experiment [2], 32.3 µM; in experiment [3], 5.31 µM; in experiment [4] it was 39.2 µM.
Consider `N/N=C1/c2cc(F)ccc2-n2c1nc1ccccc1c2=O`, for which the half-inhibitory concentration (IC50) in experiment [1] came out at 54.6 µM; in experiment [2] it was 67.7 µM; in experiment [3], 16.4 µM; in experiment [4], 44.6 µM.
Turning to `N/N=C1/c2cc(I)ccc2-n2c1nc1ccccc1c2=O`, the IC50 in experiment [1] is 44.9 µM; in experiment [2], 51.1 µM; in experiment [3] it was 24.9 µM; in experiment [4], 43.4 µM.
Turning to `CC(/C=C(\O)c1ccccc1)=N\N=C1\c2cc(Cl)ccc2-n2c1nc1ccccc1c2=O`, the IC50 in experiment [1] came to 19.7 µM; in experiment [5] it was 71 µM; in experiment [2], 23.6 µM; in experiment [3] it was 12.5 µM; in experiment [4], 18.1 µM.
For the molecule `N/N=C1/c2cc(Cl)ccc2-n2c1nc1ccccc1c2=O`, the IC50 was 67.5 µM in experiment [1], 55.7 µM in experiment [2], 19.9 µM in experiment [3] and 62.1 µM in experiment [4].
`N/N=C1/c2cc([N+](=O)[O-])ccc2-n2c1nc1ccccc1c2=O`: the IC50 in experiment [1] stood at 53.6 µM; in experiment [2], 50.3 µM; in experiment [3], 27.3 µM; in experiment [4] it was 45.6 µM.
Take `CC(/C=C(\O)c1ccccc1)=N\N=C1\c2cc([N+](=O)[O-])ccc2-n2c1nc1ccccc1c2=O`: the IC50 came out at 31.5 µM in experiment [1], 33.1 µM in experiment [2], 29.7 µM in experiment [3] and 28.4 µM in experiment [4].
Turning to `COc1cccc(/C=N/N=C2/c3cc(F)ccc3-n3c2nc2ccccc2c3=O)c1O`, the IC50 stood at 35.5 µM in experiment [1], 34.3 µM in experiment [2], 21.1 µM in experiment [3] and 31.2 µM in experiment [4].
For `O=C1O[C@H]([C@@H](O)CO)C(O)=C1O` [ASCORBIC ACID], in experiment [3], the IC50 is 3.48 µM.
